Measured values: the NIST ThermoML archive (doi:10.1016/j.jct.2015.03.019)

Assay: molar heat capacity at constant pressure
Details: 101.33 kPa, Crystal, Small (less than 1 g) adiabatic calorimetry

CC(C)(C)c1ccc(Oc2ccccc2)cc1 [4-tert-butylphenyl phenyl ether]
Details	molar heat capacity at constant pressure [J/K/mol]
120 K	144.42
120.73 K	145
121.96 K	146.09
123.18 K	147.08
124.42 K	148.25
125.65 K	149.33
126.9 K	150.41
128.13 K	151.57
129.37 K	152.57
130 K	153.32
130.6 K	153.82
131.84 K	154.9
133.08 K	155.9
134.32 K	157.23
135.56 K	158.22
136.81 K	159.31
138.05 K	160.3
139.3 K	161.47
140 K	161.97
140.55 K	162.46
141.8 K	163.38
143.04 K	164.54
144.3 K	165.79
145.55 K	166.71
146.83 K	167.95
148.09 K	169.12
149.35 K	169.95
150 K	170.61
150.61 K	171.11
151.87 K	172.28
153.13 K	173.44
154.39 K	174.44
155.66 K	175.27
156.93 K	176.43
158.2 K	177.6
159.47 K	178.43
160 K	179.01
160.74 K	179.34
162.02 K	180.67
163.29 K	181.92
164.57 K	182.92
165.84 K	184.08
167.17 K	185.33
168.45 K	186.16
169.73 K	187.16
170 K	187.41
171.02 K	188.24
172.31 K	189.4
173.6 K	190.48
174.89 K	191.57
176.18 K	192.9
177.47 K	193.64
178.77 K	194.81
180 K	195.72
180.07 K	195.97
181.37 K	197.05
183.98 K	199.21
185.29 K	200.46
186.59 K	201.63
187.96 K	202.71
189.28 K	203.54
190 K	204.12
190.59 K	204.62
191.9 K	205.95
193.22 K	207.03
194.54 K	208.28
195.86 K	209.36
197.19 K	210.52
198.51 K	211.69
199.84 K	212.52
200 K	212.52
202.54 K	214.35
203.91 K	215.51
205.26 K	216.84
206.62 K	217.92
209.43 K	220.42
210 K	221.08
212.14 K	222.5
213.5 K	223.66
214.85 K	224.82
216.21 K	225.99
218.93 K	228.56
220 K	229.81
220.29 K	230.06
221.64 K	231.06
222.99 K	232.06
